Measurements as given in PMC11979685, “Synthesis of Derivatives of the Antibiotic Albicidin: The N‐Terminal Fragment as Key to Control Potency and Resistance Mediated by the Binding Protein AlbA” (Chemistry (Weinheim an Der Bergstrasse, Germany), 2025).

Key:
[1] = target: E. coli DNA gyrase (Escherichia coli, UniProt P0AES4); experiment: E. coli gyrase DNA cleavage assay; assay type: biochemical; set-up: key to Gyrase inhibition strong+ / weak −: + strong inhibition; − weak inhibition in comparison to compound 16; conditions: for CC50: E. coli gyrase DNA cleavage, read-out: CC50 (concentration at half-maximum cleavage); for Gyrase inhibition strong+ / weak −: qualitative DNA cleavage assay at 1 μM and 10 μM, in comparison to compound 16
E. coli DNA gyrase, sequence (P0AES4 whole entry): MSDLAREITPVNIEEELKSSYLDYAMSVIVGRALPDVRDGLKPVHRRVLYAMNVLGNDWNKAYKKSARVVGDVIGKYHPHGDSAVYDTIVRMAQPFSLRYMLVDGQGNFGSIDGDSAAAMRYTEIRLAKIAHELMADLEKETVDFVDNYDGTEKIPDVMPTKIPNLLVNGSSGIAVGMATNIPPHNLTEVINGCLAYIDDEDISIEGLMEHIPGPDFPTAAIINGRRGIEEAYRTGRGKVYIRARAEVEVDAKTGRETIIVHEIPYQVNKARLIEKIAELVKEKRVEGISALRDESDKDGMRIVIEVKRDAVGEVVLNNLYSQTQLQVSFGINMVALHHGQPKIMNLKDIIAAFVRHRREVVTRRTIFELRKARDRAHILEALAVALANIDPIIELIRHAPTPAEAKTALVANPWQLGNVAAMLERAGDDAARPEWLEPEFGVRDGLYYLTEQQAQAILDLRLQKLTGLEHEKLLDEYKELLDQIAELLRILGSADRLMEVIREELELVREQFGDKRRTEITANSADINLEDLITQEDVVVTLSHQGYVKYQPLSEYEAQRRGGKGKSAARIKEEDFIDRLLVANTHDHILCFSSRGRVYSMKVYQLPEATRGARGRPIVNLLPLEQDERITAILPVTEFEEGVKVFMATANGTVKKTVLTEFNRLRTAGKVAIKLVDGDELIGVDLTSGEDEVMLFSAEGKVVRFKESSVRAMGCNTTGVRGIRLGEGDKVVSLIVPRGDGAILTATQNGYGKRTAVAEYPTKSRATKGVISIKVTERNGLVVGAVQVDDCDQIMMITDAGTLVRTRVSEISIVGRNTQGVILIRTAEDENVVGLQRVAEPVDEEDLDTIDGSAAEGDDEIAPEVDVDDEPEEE
Method: The target activity of the synthesized derivatives was investigated using a DNA cleavage assay with purified and enzymatically active E. coli DNA gyrase[8] (see SI). In this assay, albicidin‐stabilized complexes of gyrase and plasmid DNA are trapped, and subsequently denatured and deproteinated to reveal DNA linearized by gyrase. […] For the best performing compounds, which were able to fully stabilize the cleavage complex at a concentration of 1 μM, the concentrations at half‐maximum cleavage (CC50) were determined (Figure 3).
1.2 Escherichia coli Gyrase Cleavage Inhibition Assay
E. coli gyrase cleavage assays were executed by setting up a master mix including 0.25 µg relaxed plasmid (pBR322) in 35 mM Tris-HCl (pH 7.5), 24 mM KCl, 4 mM MgCl2, 2 mM dithithreitol (DTT), 1.8 mM spermidine, 1 mM ATP, 6.5% (wt/vol) glycerol and 0.1 mg/ml bovine serum albumin per reaction.
Of this stock solution, 13.2 µL was aliquoted for each reaction into 1.5 mL Eppendorf tubes and supplemented with 0.3 µL of the appropriate compound dilution or DMSO with a […] DMSO concentration of 2% per reaction. The reactions were started with 1.5 µL of 50 nM (pre-screening) or 40 nM (IC50 determinations) wt E. coli gyrase in dilution buffer (50 mM Tris-HCl (pH 7.5), 100 mM KCl, 2 mM DTT, 1 mM EDTA, and 50% (wt/vol) glycerol) for a […] volume of 15 µL. Reactions were incubated at 37°C for 30 minutes before addition of 1.5 µL 0.2% (wt/vol) SDS and 0.75 µL proteinase K (0.2 mg/mL) and further incubation at 37°C for 30 minutes to trap cleavage complexes. Reactions were stopped with 15 µL chloroform:isoamyl alcohol (24: 1 v/v) and 15 µL of STEB (40% (wt/vol) sucrose, […] Tris-Cl pH 8, 10 mM EDTA, 0.5 mg/mL bromophenol blue). After brief vortexing and centrifugation at 2,300g for 5 min, 15 µL of the aqueous phase was loaded onto 1% (wt/vol) agarose in TAE (Tris-acetate […] and EDTA […]) gels supplemented with 10 µg/mL ethidium bromide.
The gels were run at 85 V for 2 hours.
DNA was visualized (602/50, UV Trans, auto optimal exposure) with a ChemiDoc MP (Bio-Rad Laboratories Inc., equipped with ImageLab Touch Software v2.0.0.27) and the percentage of cleaved DNA relative to the total amount of DNA per lane was determined with ImageJ software.[2] IC50 curves were generated in GraphPad Prism (v10.0.0) using the non-linear regression curve fit variable slope with four parameters and least squares regression.

[2] = test system: E. coli DSM 1116; experiment: Qualitative growth inhibition assay in presence of AlbAS; assay type: cell-based, Escherichia coli; conditions: for GIA: E. coli inhibition +AlbA: E. coli DSM 1116, 10 µM compound with equimolar AlbAS; for bioactivity in presence of AlbAS (in words): E. coli, equimolar purified AlbAS
Method: Finally, we investigated if synthetic variations of building block A are able to evade the effects of the resistance protein AlbA. Therefore, we carried out a qualitative growth inhibition assay with derivatives 4–24 in presence of an equimolar amount of purified AlbAS. After incubation of the cultures overnight, the growth of the bacteria was evaluated. The ability of AlbAS to sufficiently sequester an albicidin derivative from the supernatant allowed E. coli cells to accumulate in a visible cell pellet. Second, we performed a quantitative transcription‐activation reporter assay[22] to assess transcriptional regulation by AlbAL. The promoter sequence pAlbA was inserted into a reporter vector that encodes the ilux luminescence cassette.[22] The luminescence signals elicited by ligand binding of synthetic variations to AlbAL was compared and normalized to the signal induced by 2nd Gen albicidin 2 and are hereby referred to as relative transcription activation (TA^%). The combination of both assays prompted us to categorize the experimental outcomes (Figure 4) in four groups:
Figure 4 Characterization of AlbA resistance against derivatives 2, 4–24. GIA: Qualitative growth inhibition assay against E. coli DSM 1116. (−): Derivative unable to inhibit the growth of E. coli in presence of AlbAS. (+): Derivative inhibits growth of E. coli in presence of AlbAS. […] For details see SI Figure 9. Transcription activation (TA) assay: luminescence elicited by 2nd Gen albicidin 2 from the TA assay was normalized to 100 % and the luminescence signal of tested derivatives provided: relative luminescence [%]=luminescence [derivative]/luminescence [2]×100 %. Green bars indicate low relative luminescence (<40 %) and red bars indicate high relative luminescence (>50 %). Error bars show the standard deviations of triplicate measurements. TEXT PRINTED IN THE PICTURE: 2: E. coli inhibition +AlbA: − | 4: E. coli inhibition +AlbA: + | 9: E. coli inhibition +AlbA: + | 11: E. coli inhibition +AlbA: + | 12: E. coli inhibition +AlbA: + | 13: E. coli inhibition +AlbA: ~ | 14: E. coli inhibition +AlbA: − | 16: E. coli inhibition +AlbA: − | 17: E. coli inhibition +AlbA: − | 18: E. coli inhibition +AlbA: − | 19: E. coli inhibition +AlbA: − | 20: E. coli inhibition +AlbA: + | 21: E. coli inhibition +AlbA: − | 22: E. coli inhibition +AlbA: − | 23: E. coli inhibition +AlbA: − | 24: E. coli inhibition +AlbA: − […]
1.3 Resistance assessment against AlbA
E. coli strain DSM 1116 was used for all susceptibility testing. E. coli BL21 Star (DE3) cells (Invitrogen) were used for protein expression. LB medium (Lysogeny broth: 10 g/L peptone, 5 g/L yeast extract, 5 g/L NaCl) was used as broth or in agar plates for all experiments. Incubation steps took place at 37°C and 180 rpm shaking if not stated otherwise. Throughout the study, 2nd Gen albicidin 2 was used as albicidin standard due to its better stability, availability and similar activity compared to natural albicidin in presence of resistance factors.[3,4]
AlbA expression and purification
N-terminally His-tagged AlbA was expressed using a pET28a vector as described previously.[5] In brief, E. coli BL21(DE3) cells were transformed with pET28-AlbA plasmid and grown in LB medium with kanamycin. LB broth supplemented with 50 µg/mL kanamycin was inoculated from over-night cultures and grown at 37°C until an OD600 of 0.6 was reached. After induction with 0.2 mM isopropyl β-D-1-thiogalactopyranoside (IPTG) the proteins were expressed at 18°C for 20 h. The cells were harvested by centrifugation (4,000 x G, 20 min), resuspended in lysis buffer (50 mM Tris, pH 8.0, 500 mM NaCl, 10% glycerol) and processed in a cell disruptor (Constant Systems Ltd) at 25 kPsi before centrifugation at 50,000 x G, at 4°C for 45 min. The lysate was incubated with Pure Cube Ni-NTA agarose (Cube Biotech, Germany) at 4°C for 20 min while shaking. The slurry was transferred to empty gravity-flow […]

SMILES | CC50 [1] [nM] | Gyrase inhibition strong+ / weak − [1] | GIA: E. coli inhibition +AlbA [2] | bioactivity in presence of AlbAS (in words) [2]
COc1c(NC(=O)c2ccc(NC(=O)c3ccc(NC(=O)[C@H](Cc4c[nH]nn4)NC(=O)c4ccc(NC(=O)c5ccc(C#N)cc5)cc4)cn3)c(OC)c2O)ccc(C(=O)O)c1O [compound 4] | 12 | + | + | has bioactivity
COc1c(NC(=O)c2ccc(NC(=O)c3ccc(NC(=O)[C@H](Cc4c[nH]nn4)NC(=O)c4ccc(NC(=O)[C@@H](C)Oc5ccc(O)cc5)cc4)cn3)c(OC)c2O)ccc(C(=O)O)c1O [compound 9] |  | + | + | has bioactivity
COc1c(NC(=O)c2ccc(NC(=O)c3ccc(NC(=O)[C@H](Cc4c[nH]nn4)NC(=O)c4ccc(NC(=O)c5ccc6ccccc6n5)cc4)cn3)c(OC)c2O)ccc(C(=O)O)c1O [compound 11] | 18 | + | + | highly bioactive
COc1c(NC(=O)c2ccc(NC(=O)c3ccc(NC(=O)[C@H](Cc4c[nH]nn4)NC(=O)c4ccc(NC(=O)c5cc6ccccc6cn5)cc4)cn3)c(OC)c2O)ccc(C(=O)O)c1O [compound 12] |  | + | + | highly bioactive
COc1c(NC(=O)c2ccc(NC(=O)c3ccc(NC(=O)[C@H](Cc4c[nH]nn4)NC(=O)c4ccc(NC(=O)c5cnc6ccccc6c5)cc4)cn3)c(OC)c2O)ccc(C(=O)O)c1O [compound 13] |  | + |  | has bioactivity
COc1c(NC(=O)c2ccc(NC(=O)c3ccc(NC(=O)[C@H](Cc4c[nH]nn4)NC(=O)c4ccc(NC(=O)c5ccc6ncccc6c5)cc4)cn3)c(OC)c2O)ccc(C(=O)O)c1O [compound 14] |  | + | − | deactivated
COc1c(NC(=O)c2ccc(NC(=O)c3ccc(NC(=O)[C@H](Cc4c[nH]nn4)NC(=O)c4ccc(NC(=O)c5ccc6nc(C)ccc6c5)cc4)cn3)c(OC)c2O)ccc(C(=O)O)c1O [compound 16] |  | + | − | deactivated
COc1c(NC(=O)c2ccc(NC(=O)c3ccc(NC(=O)[C@H](Cc4c[nH]nn4)NC(=O)c4ccc(NC(=O)c5c[nH]c6ccccc6c5=O)cc4)cn3)c(OC)c2O)ccc(C(=O)O)c1O [compound 17] |  | + | − | deactivated
CCn1cc(C(=O)Nc2ccc(C(=O)N[C@@H](Cc3c[nH]nn3)C(=O)Nc3ccc(C(=O)Nc4ccc(C(=O)Nc5ccc(C(=O)O)c(O)c5OC)c(O)c4OC)nc3)cc2)c(=O)c2ccc(C)nc21 [compound 18] |  | − | − | deactivated
CCn1cc(C(=O)Nc2ccc(C(=O)N[C@@H](Cc3c[nH]nn3)C(=O)Nc3ccc(C(=O)Nc4ccc(C(=O)Nc5ccc(C(=O)O)c(O)c5OC)c(O)c4OC)nc3)cc2)c(=O)c2cc3c(cc21)OCO3 [compound 19] |  | − | − | deactivated
COc1c(NC(=O)c2ccc(NC(=O)c3ccc(NC(=O)[C@H](Cc4c[nH]nn4)NC(=O)c4ccc(NC(=O)c5cc(=O)c6cc(F)ccc6o5)cc4)cn3)c(OC)c2O)ccc(C(=O)O)c1O [compound 20] |  | + | + | highly bioactive
COc1c(NC(=O)c2ccc(NC(=O)c3ccc(NC(=O)[C@H](Cc4c[nH]nn4)NC(=O)c4ccc(NC(=O)c5cc6cc(O)ccc6[nH]5)cc4)cn3)c(OC)c2O)ccc(C(=O)O)c1O [compound 21] |  | + | − | deactivated
COc1c(NC(=O)c2ccc(NC(=O)c3ccc(NC(=O)[C@H](Cc4c[nH]nn4)NC(=O)c4ccc(NC(=O)c5ccc6ncsc6c5)cc4)cn3)c(OC)c2O)ccc(C(=O)O)c1O [compound 22] | 43 | + | − | deactivated
COc1c(NC(=O)c2ccc(NC(=O)c3ccc(NC(=O)[C@H](Cc4c[nH]nn4)NC(=O)c4ccc(NC(=O)c5ccc6nc[nH]c6c5)cc4)cn3)c(OC)c2O)ccc(C(=O)O)c1O [compound 23] |  | + | − | deactivated
COc1c(NC(=O)c2ccc(NC(=O)c3ccc(NC(=O)[C@H](Cc4c[nH]nn4)NC(=O)c4ccc(NC(=O)c5ccc6nn[nH]c6c5)cc4)cn3)c(OC)c2O)ccc(C(=O)O)c1O [compound 24] |  | + | − | deactivated
